Laboratory results as given in PMC5413024, “Mechanistic insights into the more potent effect of KP-54 compared to KP-10 in vivo” (PLoS ONE, 2017).
In brackets after ≈: the same amount, converted by molar mass.

Columns and labels:
[1] = men / humans; ref [5], [30] (KP-10), ref [5] (KP-54); cited from earlier work
Text: It should be noted, however that the RIA used to measure KP-54 may also detect shorter breakdown products of this protein that might be biologically inert. It is likely that the lack of GnRH neuronal activation and sustained LH release by KP-10 is mainly due to its instability. It is noteworthy that we failed ...

c-FOS in GnRH neurons = assay: Study 3: c-FOS activation in GnRH neurons after peripheral kisspeptin (dual-label immunohistochemistry, BSA-FITC to define the BBB); format: in vivo, mouse; settings: male mice
Procedure: Induction of expression of the immediate early gene c-Fos is regarded as a marker of neuronal activation. KISS1R activation results in c-FOS induction, which allows identification of the GnRH neurons that are activated by KP. We examined co-localization of c-FOS protein in GnRH neurons by immunohistochemistry 2h after peripheral injection of either KP-10 or KP-54. […] 1 nmol KP-54 was injected first, followed by injection of 100 μl of a 50mg/ml solution of BSA-FITC into the tail vein. The mice were perfused with 4% paraformaldehyde/PBS 2 hrs after KP-54 injection and the brains processed for c-FOS, GnRH and BSA-FITC detection. A negative control for fluorescence was also performed with unconjugated BSA.
Free-floating, dual-label chromogen immunohistochemistry was undertaken as described previously. Mice were perfused with 4% paraformaldehyde in PBS and the brains removed and post-fixed for 1h in the same fixative. The brains were cut as 40 μm free-floating coronal sections using a vibratome (VT1000S; Leica). […]
Sections were examined using an Axioscope 2 plus microscope (Carl Zeiss) using bright-field or fluorescence microscopy. […] Where appropriate, BSA-FITC was detected by epifluorescence microscopy at an excitation wavelength of 490 nm and an emission wavelength of 525 nm (green). About fifteen successive sections containing GnRH neurons were counted per animal (n = 6 per treatment). […]

[2] = from the product data sheets; ref product data sheets (manufacturer); cited from earlier work
Procedure: KP-10 [human Metastin (45–54) amide, M-2816] was purchased from Sigma-Aldrich. KP-10 consists of the C-terminal 10-amino acids of KP-54. Human KP-54 was synthesized by the Advanced Biotechnology Centre, Imperial College, London, UK. BSA-FITC was purchased from Sigma (A9771). From the product data sheets, the solubility of KP-10 and KP-54 in water is 1mg/ml. We prepared stock solutions in sterile PBS at 100 μM, which is almost ten times lower than the solubility limit set by the manufacturer. The 100 μM stock solution was diluted in sterile PBS and 100 μl of the working solution was injected to ...

[3] = Study 4: pharmacokinetics of plasma kisspeptin after i.p. injection (radioimmunoassay); format: in vivo, mouse; settings: male mice, 1 nmol i.p.
Procedure: Male mice received a single i.p. injection of 1 nmol KP-10 or 1 nmol KP-54. 100 μl of blood was collected from the lateral tail vein from groups of mice (n = 4) for each time point (0, 1 min, 2 min, 5 min, 10 min, 30 min, 60 min and 120 min). Terminal bleeds were collected from the vena cava. Blood was mixed with 5 μl EDTA, centrifuged at 10,000 x g for 10 min at 4°C to obtain the plasma fraction, and stored at -20°C until assayed. Kisspeptin concentrations were measured using an established in house competitive radioimmunoassay (RIA, [5]. Briefly, this RIA uses a sheep polyclonal antibody (GQ2), raised against human KP-54, which cross-reacts with human KP-54, KP-14 and KP-10.
3–5 month old wild-type (129S6/SvEv) male mice were used in this study. The mice were housed in open cages on a 12 hour light cycle (lights on at 0700 h) at a controlled temperature (22°C), and were provided with food and water ad libitum. All experiments were performed under the authority of a United Kingdom Home Office Project License and were approved by a Cambridge Animal Ethics Committee.

In the case of `CC[C@H](C)[C@H](NC(=O)[C@H](CCC(N)=O)NC(=O)[C@H](CCCNC(=N)N)NC(=O)[C@H](CO)NC(=O)[C@H](Cc1c[nH]cn1)NC(=O)[C@@H]1CCCN1C(=O)[C@H](C)NC(=O)[C@H](CO)NC(=O)[C@H](CC(C)C)NC(=O)CNC(=O)[C@@H]1CCCN1C(=O)[C@H](CCC(N)=O)NC(=O)[C@H](CCC(N)=O)NC(=O)[C@H](CCCNC(=N)N)NC(=O)[C@H](CO)NC(=O)CNC(=O)[C@H](CO)NC(=O)[C@H](CO)NC(=O)[C@H](CCC(=O)O)NC(=O)[C@@H]1CCCN1C(=O)[C@@H]1CCCN1C(=O)[C@@H]1CCCN1C(=O)[C@H](CO)NC(=O)[C@H](CC(C)C)NC(=O)[C@H](CO)NC(=O)[C@@H](NC(=O)CN)[C@@H](C)O)C(=O)N1CCC[C@H]1C(=O)N[C@@H](C)C(=O)N1CCC[C@H]1C(=O)N[C@@H](CCC(N)=O)C(=O)NCC(=O)N[C@@H](C)C(=O)N[C@H](C(=O)N[C@@H](CC(C)C)C(=O)N[C@H](C(=O)N[C@@H](CCC(N)=O)C(=O)N[C@@H](CCCNC(=N)N)C(=O)N[C@@H](CCC(=O)O)C(=O)N[C@@H](CCCCN)C(=O)N[C@@H](CC(=O)O)C(=O)N[C@@H](CC(C)C)C(=O)N1CCC[C@H]1C(=O)N[C@@H](CC(N)=O)C(=O)N[C@@H](Cc1ccc(O)cc1)C(=O)N[C@@H](CC(N)=O)C(=O)N[C@@H](Cc1c[nH]c2ccccc12)C(=O)N[C@@H](CC(N)=O)C(=O)N[C@@H](CO)C(=O)N[C@@H](Cc1ccccc1)C(=O)NCC(=O)N[C@@H](CC(C)C)C(=O)N[C@@H](CCCNC(=N)N)C(=O)N[C@@H](Cc1ccccc1)C(N)=O)C(C)C)C(C)C` [KP-54], the “half-life in the blood stream in humans” value [1] is given as 28 min, the “c-FOS activation of GnRH neurons behind the blood brain barrier (functional surrogate for BBB crossing)” value (c-FOS in GnRH neurons; 1 nmol KP-54 plus i.v. BSA-FITC (does not cross the BBB), 2 h, n = 3) is given as “c-FOS-positive GnRH neurons in hypothalamic areas that were negative for BSA-FITC” and the “percentage of GnRH neurons positive for c-FOS (all regions)” value (c-FOS in GnRH neurons; 2 h after peripheral injection of 1 nmol, n = 6, vehicle 0.54 ± 0.15%) is given as 22.07 ± 2.96%. For the same molecule, the solubility in water [2] was 1 mg/mL (≈ 171 µM), the level at time molar at 0.5 h ([3]; 129S6/SvEv, mouse, plasma, ip, RIA, mean ± SEM, n = 4, read-out: plasma kisspeptin level at 30 min post-injection) was 13.2 ± 4.36 nM and the level at time molar at 1 h ([3]; 129S6/SvEv, mouse, plasma, ip, RIA, mean ± SEM, n = 4, read-out: plasma kisspeptin level at 60 min post-injection) was 5.03 ± 0.787 nM. The level at time molar at 2 h ([3]; 129S6/SvEv, mouse, plasma, ip, RIA, mean ± SEM, n = 4, read-out: plasma kisspeptin level at 120 min post-injection) was 1.19 ± 0.33 nM, the “peak (maximum) plasma kisspeptin level” value ([3]; RIA (GQ2 antibody), mean ± SEM, n = 4 per time point) was 12292 ± 2655 pmol/L and the “time of peak plasma kisspeptin level post-injection” value ([3]; RIA, n = 4 per time point) was 5 min. The plasma half-life ([3]; estimated from RIA plasma levels, RIA recognises all forms of Kp, may include breakdown products) was “around 32 min” and the “fraction of the injected peptide entering the bloodstream after intraperitoneal injection” value ([3]; assuming a total blood volume of approximately 5 ml) was ~6%.
